Data: patent EP2932958A1, “COSMETIC AND PHARMACEUTICAL APPLICATIONS OF N-ACETYLHYDROXYPROLINE” (Beiersdorf AG, priority 2007, dated 2008)

Tests used:
[1] = molecular target: T1, BSA (Bos taurus, UniProt P02769); assay: Inhibition of CML glycation of BSA with DHA, dot-blot (part B); assay type: biochemical, Bovine; settings: BSA 1%, DHA 1%, 1 day at 50°C; series I 0.17 % and II 9.82 mM of inhibitor
Protocol: Samples (A-F) were incubated for 1 day at 50°C and analysed for CML-content using the dot-blot approach set forth above in A. The dot-blot results are shown in Figure 11.
(§1) The samples had the following composition: • A: only BSA (1%) • B: BSA (1%) with DHA (1%) • C: BSA (1%) with Hydroxyproline and DHA (1 %) • D: BSA (1%) with N-Acetylhydroxyproline (NAHP) and DHA (1%) • E: BSA (1%) with Proline and DHA (1%) • F: BSA (1%) with Acetylproline and DHA (1%)
(§2) Each sample (A-F) was tested twice (I+II) with the difference that I. was conducted with 0.17 % of each inhibitor (Proline, Hydroxyproline, Acetylproline or NAHP) and II. was conducted with 9.82 mM of each inhibitor.
The intensity of each dot was quantified. The results are represented in Figure 12.

[2] = molecular target: T1, BSA; assay: AGE-fluorescence of BSA incubated with DHA (part B, samples II); assay type: biochemical, Bovine; settings: BSA 1%, DHA 1%
Protocol: as §1, §2
Samples A-F (II) were further tested regarding the inhibition of the formation of other AGEs (different from CML). To this end, the AGE-fluorescence at λex=370 nm and λem= 440 nm was measured. The wavelengths used are those proposed by Bellmunt et al., Lung 173 (1995), 177-85 and used by many laboratories.

[3] = molecular target: T1, BSA; assay: BSA-Glucose Assay of AGE formation at pH 5 and pH 7 (part F); assay type: biochemical, Bovine; settings: BSA with glucose, 7 days at 50°C
Protocol: As acetylated compounds result in a decrease in the pH, the effect of NAHP was compared at two different pH values (pH 5 and pH 7). As described in Section A, the BSA-Glucose Assay was used. To stabilize the pH the adjustment was performed after the addition of the inhibitor.
After incubation of BSA with glucose for 7 days at 50°C a significant increase in AGE fluorescence is detectable. An acidic environment (pH 5) results in a much less intensive AGE-formation in the BSA-Glucose Assay than a neutral, environment (pH 7).

[4] = system: age spots (senile lentigo); assay: Lightening effect on undesired skin pigmentation (age spots); assay type: in vivo; settings: after seven days
Text: Undesired and uneven skin pigmentation such as, e.g., age spots (senile lentigo) are a major problem associated with the aging of skin and skin appendages. N-acetylhydroxyproline has an effect with respect to the lightening of age spots.

[5] = molecular target: T1, BSA; assay: Inhibition of BSA-CML formation with glucose, dot-blot with CML-specific antibody (part A); assay type: biochemical, Bovine; settings: BSA 1.035 %, glucose 1 M, 7 days at 50°C, various amounts of NAHP
Protocol: BSA samples of were incubated with glucose for 7 days at 50°C in the presence of various amounts of NAHP and thereafter analysed for their CML-content using a dot-blot approach. An antibody which is specific for the CML modifications of immobilised proteins (in this case BSA) on a nitrocellulose membrane was used to make the CML modifications visible. […] The stronger the intensity of each dot in the above series, the higher is the concentration of CML-modifications on the BSA. The control consists of BSA without glycation agent (glucose). Each single dot was quantified for its intensity leading to the results which are shown diagrammatically in Figure 10.
The concentration of BSA was 1.035 % (10.35 mg/ml) and the concentration of glucose in each sample was 1 M.

[6] = system: Primary human fibroblasts; assay: CML formation in fibroblasts after glyoxal treatment (FACS, immunoblot, immunoprecipitation); assay type: cell-based; settings: 200 µM glyoxal for 7 days
Protocol: To test the effect of CML-modifications on vimentin function cells were treated with glyoxal to induce CML-vimentin modifications in fibroblasts. Primary human fibroblasts were incubated with 200 µM glyoxal for 7 days to enhance CML formation^18,20,28. […] The higher rate of CML-vimentin formation leads to a predominant modification of vimentin in the linker region of the molecule.
Proteins from cell extracts (20 µg per lane) were separated by gel electrophoresis under denaturing conditions on 10% SDS-PAGE gels. Immunoblotting was performed following standard procedures using chemiluminescence methods. […] Signals were quantified using LumiAnalyst (Boehringer Mannheim, Germany). […]
Fibroblasts were incubated for 7 days with 200 µM glyoxal^18,20. […] After 3 washing steps with PBS the fluorescence was measured using FACSCanto (BD Biosciences, San Jose, USA) and analysed by the software BD FACSDiva 4.0.
Human fibroblasts were incubated for 7 days with 200 µM glyoxal^18,20 and tested for CML formation using FACS analysis as described above (a). Quantitative analysis of (a) is shown in panel (b, right columns) together with quantitative analysis of dot-blots as described in the legend to Fig.4 and the Methods section (b, left columns). […] Additionally, the two cell populations were lysed, vimentin was immunoprecipitated and analysed for CML-modification by SDS-page and immunoblotting. […]

[7] = system: human fibroblasts; assay: Vimentin redistribution to a perinuclear aggregate after glyoxal treatment (immunofluorescence microscopy); assay type: cell-based
Protocol: To determine whether the loss of contractile capacity is the result of a CML-induced redistribution of vimentin, immunofluorescence microscopic analysis of fibroblasts with and without glyoxal treatment were employed. […] About 90% of the fibroblasts were affected after incubation for 7 days.
For immunostaining, cells were fixed in 3% paraformaldehyde for 30 minutes at room temperature, washed with PBS and permeabilized with 0.5% Triton X-100 for 5 minutes; after which the cells were blocked with 3% BSA for 30 minutes. Cells were then incubated with primary antibody in 1% BSA for 1 hour. […] Cells were then incubated for 1 hour with 1% BSA solution containing fluorescence-labelled secondary antibodies (AlexaFluor 488 chicken-anti-mouse IgG, AlexaFluor 594 donkey-anti-goat IgG, AlexaFluor 546 donkey-anti-goat IgG, Molecular Probes, Eugene, Oregon) at 1:1,000 to visualise the target protein and DAPI (Molecular Probes, Eugene, Oregon). After extensive washing with PBS fluorescence images were recorded on a fluorescence microscope (Olympus, Hamburg, Germany) with an attached […] camera. Confocal fluorescence images were recorded on LSM 510 Meta (Carl Zeiss, Jena, Germany). […]

[8] = system: human fibroblasts; assay: Contraction capacity of fibroblasts in 3D free-floating collagen lattices; assay type: cell-based; settings: glyoxal treated vs control fibroblasts, n=10, p=0.00056
Protocol: Further, normal fibroblasts were compared with fibroblasts with a higher CML-vimentin modification with respect to contractile capacities. The contractile capacity was determined using 3D free-floating collagen lattices^29,30.
100 mg Type I collagen (Sigma, St. Louis, USA) was dissolved at 4°C in 33.3 ml of 0.1% sterile acetic acid. 0.9 ml of 10x Hank's Buffer Salt Solution (Biochrom, Berlin, Germany) was added to 4.5 ml of this solution of collagen. 1.9 ml of 0.1% acetic acid was supplemented. NaOH was added dropwise to neutralise the solution. 1.5 x 10^5 fibroblasts were resuspended in 0.1 ml FCS and added to the solution for each ml of the gel. Casy Model TT (Schärfe System, Reutlingen, Germany) was used to count the fibroblasts and to control their viability. […] Diameters were measured at 0 hours and 24 hours. […]
Human fibroblasts were incubated for 7 days with 200 µM glyoxal^18,20 and tested for CML formation using FACS analysis as described above (a). Quantitative analysis of (a) is shown in panel (b, right columns) together with quantitative analysis of dot-blots as described in the legend to Fig.4 and the Methods section (b, left columns). […] Additionally, the two cell populations were lysed, vimentin was immunoprecipitated and analysed for CML-modification by SDS-page and immunoblotting. […] The contraction of these lattices was measured after 48h. […]

T1 sequence (P02769 25-607): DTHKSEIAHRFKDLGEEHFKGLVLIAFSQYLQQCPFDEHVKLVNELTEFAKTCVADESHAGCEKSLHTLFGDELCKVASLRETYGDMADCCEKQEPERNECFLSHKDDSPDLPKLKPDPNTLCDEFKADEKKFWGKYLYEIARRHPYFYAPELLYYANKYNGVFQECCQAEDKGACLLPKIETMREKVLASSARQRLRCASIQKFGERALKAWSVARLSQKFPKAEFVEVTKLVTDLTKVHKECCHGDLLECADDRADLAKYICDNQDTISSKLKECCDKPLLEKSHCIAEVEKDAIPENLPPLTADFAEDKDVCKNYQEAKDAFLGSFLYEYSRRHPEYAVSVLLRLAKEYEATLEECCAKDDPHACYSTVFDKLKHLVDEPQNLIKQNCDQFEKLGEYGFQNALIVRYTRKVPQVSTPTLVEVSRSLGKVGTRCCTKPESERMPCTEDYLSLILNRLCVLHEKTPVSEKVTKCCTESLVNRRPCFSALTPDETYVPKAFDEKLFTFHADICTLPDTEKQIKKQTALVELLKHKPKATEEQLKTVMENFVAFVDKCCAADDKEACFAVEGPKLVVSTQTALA

formation of fluorescent AGEs (AGE-fluorescence at λex=370 nm and λem= 440 nm) ([2]; 9.82 mM inhibitor (samples II))	brownish color of AGEs in the solution ([2]; samples II, digital picture)	AGE-formation (AGE fluorescence) at pH 5 ([3]; pH 5)	AGE-formation (AGE fluorescence) at pH 7 ([3]; pH 7)	Structure (SMILES)	inhibitory effect on the CML-glycation of BSA (dot-blot intensity) [1]	brightness of the treated age spot [4]	CML glycation of BSA (dot-blot intensity) [5]	CML as measured by FACS and immunoblot analysis [6]	fibroblasts showing perinuclear vimentin aggregate formation ([7]; 200 µM glyoxal for 2 days)	fibroblasts affected by vimentin aggregate formation ([7]; 200 µM glyoxal, incubation for 7 days)	contractile capacity of fibroblasts in 3D collagen lattices [8]
–	–	–	–	CC(=O)N1CCC[C@H]1C(=O)O [Acetylproline, reference compound]	potent inhibitor of the CML-glycation, but to a lesser extent than NAHP	–	–	–	–	–	–
inhibited	absent	reduced AGE-formation	reduced AGE-formation	CC(=O)N1C[C@H](O)C[C@H]1C(=O)O [NAHP, N-acetylhydroxyproline]	strongest inhibitory effect	increase in brightness	protective effect on BSA, preventing the CML glycation of this protein	–	–	–	–
–	–	–	–	O=CC=O [glyoxal]	–	–	–	massive increase of CML	About 70%	About 90%	significantly reduced
